Measured values from patent publication US20070015813A1, “Treatment of protein folding disorders” (QUEEN'S UNIVERSITY AT KINGSTON, priority 2005, published 2007).

What was measured:
Format in all cases: biochemical
Aβ1-40 = molecular target: T1, Aβ1-40 (Homo sapiens, UniProt P05067); experiment: Kinetic Thioflavin T (ThT) aggregation assay of Aβ1-40; settings: 20 μM Aβ1-40, 4 μM ThT, pH 7.4, 37° C., kinetic ThT assay
T1 construct: Aβ^1-40 (AnaSpec, San Jose, Calif., lots 14212, 34862 and 34889); purchased AnaSpec, San Jose, Calif
Experimental: Aβ^1-40 (1.0 mg) was pre-treated in a 1.5 mL microfuge tube with 1,1,1,3,3,3-hexafluoroisopropanol (HFIP, 1 mL) and sonicated for 20 min. to disassemble any pre-formed Aβ aggregates. The HFIP was removed with a stream of argon and the Aβ dissolved in Tris base (5.8 mL, 20 mM, pH 10.5). The pH was adjusted to 7.4 with concentrated HCl and the solution filtered using a syringe filter (0.2 μm). This solution was used for circular dichroism studies or diluted with an equal volume of 8 μM Thioflavin T (ThT) in Tris-HCl (20 mM, pH 7.4, 300 mM NaCl) for the ThT aggregation assay.
(§1) Aliquots (200 μL) of Aβ^1-40, Aβ^1-42, tau441 or α-synuclein with ThT or ThS were added to wells of a black polystyrene 96-well plate, followed by 2 μL of a compound in DMSO (various concentrations), or DMSO alone (controls). For α-synuclein, sodium dodecyl sulfate solution (2.0 μL, 30 mM) was also added to each well to induce aggregation. Incubations were performed in triplicate and were taken to contain 20 μM Aβ^1-40 or Aβ^1-42, 6 μM tau441 or 4 μM α-synuclein. Plates were covered with clear polystyrene lids and incubated at 37° C. in a GENios microplate reader obtained from Tecan Group Limited, Mannedorf, Zurich. For Aβ^1-40, tau441 and α-synuclein, fluorescence readings (λex=450 nm, λem=480 nm) were taken every 15 min., after first shaking at high intensity for 15 sec. and allowing to settle for 10 sec. before each reading. For Aβ^1-42, readings were taken every 5 min.
(§2) The absorbance of each compound was measured under the conditions used during testing, though on ten times the scale (2 mL), to ensure no significant quenching interfered with the assay. This step was also used to identify whether compounds were completely soluble under testing conditions.
FIG. 1 depicts the inhibition of Aβ^1-40 aggregation, as measured by Thioflavin T (ThT) fluorescence, by directly-linked 3,3′-bis-indolyl compounds 0c-i (A), other bis-indoles (B), aza-indole-containing compounds (C), indole-phenols (D), indole-5-carboxylic acid-containing bi-aromatics (E), and naphthol-containing bi-aromatics (F). Aggregation conditions: 20 μM Aβ^1-40 incubated in covered black 96-well polystyrene microplates with 4 μM ThT, pH 7.4, Tris-HCl (20 mM), 150 mM NaCl, 1% DMSO. Compound concentrations are 200 μM (A,B, except where otherwise noted), 100 μM (E), 20 μM (F), or as indicated (C,D). Plates heated at 37° C. in Tecan Genios microplate reader. All incubations performed in triplicate. Prior to experiment, Aβ^1-40 pretreated with 1,1,1,3,3,3-hexafluoroisopropanol (HFIP). Fluorescence readings: fluorescence measured every 15 min. (λex=450 nm, λem=480 nm) after shaking for 15 sec. and pausing 10 sec. before taking measurement. Values are the mean of three replicates. Error bars, omitted for clarity in (B), represent standard deviation of the mean.

α-synuclein = molecular target: T2, α-synuclein (Homo sapiens, UniProt P37840); experiment: α-Synuclein aggregation ThT fluorescence assay; settings: α-Synuclein (6 μM), 10 μM ThT, pH 7.4, 37° C., compound 100 μM or as indicated
T2 construct: purchased rPeptide, Bogart, GA
Experimental: α-Synuclein (1.0 mg) was dissolved directly in Tris-HCl (11.53 mL, 20 mM, pH 7.4, 100 mM NaCl) containing DTT (5 mM) and ThT (10 μM).
as §1, with “Incubations were performed in triplicate and were taken to contain 20 μM Aβ^1-40 or Aβ^1-42, 6 μM tau441 or 4 μM α-synuclein.” left out
FIG. 12 depicts inhibition of α-synuclein aggregation by synthesized bi-aromatics and positive control morin (K, Yamada M. 2006. J Neurochem 97:105-15). Aggregation conditions: α-Synuclein (6 μM) was incubated in covered black 96-well polystyrene microplates in Tris-HCl (20 mM, pH 7.4), 10 μM ThT, 1% DMSO with compound concentrations of 100 μM (A) or as indicated (B). Plates were heated at 37° C. in a Tecan Genios microplate reader. […] Fluorescence readings: fluorescence was measured every 15 min. […]

Aβ1-42 = molecular target: T3, Aβ1-42 (Homo sapiens, UniProt P05067); experiment: Kinetic Thioflavin T (ThT) aggregation assay of Aβ1-42; settings: 20 μM Aβ1-42, kinetic ThT assay
T3 construct: Aβ^1-42 (AnaSpec, lot 45685); purchased AnaSpec
Experimental: Aβ^1-42 (1.0 mg) was either pretreated with HFIP in the same manner as Aβ^1-40 or this step was omitted. After removing HFIP, when appropriate, Aβ^1-42 was dissolved in 1% NH3 (aq.) (200 μL) and sonicated for 1 min. The solution was diluted with Tris-HCl (5.7 mL, 20 mM, pH 7.4), the pH adjusted to 7.4 with concentrated HCl (aq.) and the solution filtered using a syringe filter (0.2 μm). Prior to use in the ThT aggregation assay, the solution was diluted with an equal volume of 8 μM Thioflavin T (ThT) in Tris-HCl (20 mM, pH 7.4, 300 mM NaCl).
as §1, §2
FIG. 7 depicts inhibition of Aβ^1-42 aggregation by various synthesized bi-aromatic compounds and positive controls morin (Ono K, Yoshiike Y, Takashima A, Hasegawa K, Naiki H, Yamada M. 2003. J Neurochem 87:172-81) and RS-0406 (Walsh D M, Townsend M, Podlisny M B, Shankar G M, Fadeeva J V, Agnaf O E, Hartley D M, Selkoe D J. 2005. J Neurosci 25:2455-62) in the kinetic ThT assay. Same conditions as for Aβ^1-40, FIG. 1. Compound concentrations were 100 μM in (A), 20 μM in (B), except for RS-0406, which was tested at 100 μM, and 20 μM in (C).

T1 sequence (P05067 672-711 limits assumed): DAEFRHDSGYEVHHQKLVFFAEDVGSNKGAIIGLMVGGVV
T3 sequence (P05067 672-713 limits assumed): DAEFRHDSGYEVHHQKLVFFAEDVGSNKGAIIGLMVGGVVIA

| SMILES | inhibition of Aβ1-40 aggregation, as measured by Thioflavin T (ThT) fluorescence (Aβ1-40) | inhibition of α-synuclein aggregation (ThT fluorescence) (α-synuclein) | inhibition of Aβ1-42 aggregation, as measured by ThT fluorescence (Aβ1-42) |
| --- | --- | --- | --- |
| O=C(O)c1ccc2[nH]cc(-c3c[nH]c4ccc(Br)cc34)c2c1 [0c, 3-(5-bromo-indol-3-yl)-indole-5-carboxylic Acid] | dose-response effect |  |  |
| O=c1c(O)c(-c2ccc(O)cc2O)oc2cc(O)cc(O)c12 [morin] | inhibition | inhibition | inhibition |
